Tested on: OVA sensitized FVB mice
Assay: Allergic airway inflammation, BAL leukocyte differentials, comparison with Montelukast (FIG. 7)
Format: in vivo, mouse (FVB)
Set-up: dose or concentration left out as unconfirmed
Settings: days 14-17, at least 1 h prior to OVA aerosol; BAL day 18
Excerpt: FIG. 7. Depicts regulation of allergic airway inflammation by 15-epi,16-para-fluoro-phenoxy-LXA4-methyl ester in comparison to a commercially available drug (Montelukast) used to treat chronic asthma.
Five to seven week old male FVB (Charles River Laboratories, Wilmington, Mass.) mice were housed in isolation cages under viral antibody-free conditions. After Harvard Medical Area IRB approval (Protocol #02570), mice were sensitized with intraperitoneal injections of ovalbumin (OVA) (Grade III; Sigma Chemical Co., St. Louis, Mo.) (10 mg) plus 1 mg aluminum hydroxide (ALUM) (J. T. Baker Chemical Co.; Phillipsburg, N.J.) as adjuvant in 0.2 ml PBS on days 0 and 7. On days 14, 15, 16 and 17, the mice received an analog of LXA4 (15-epi,16-para-fluoro-phenoxy-LXA4-methyl ester) ([…], 21.7 nmoles), montelukast ([…], 21.7 nmoles) or PBS with 1.6 mM CaCl2 and 1.6 mM MgCl2 (0.1 ml) by intravenous injection at least 1 h prior to an aerosol challenge containing either PBS or 6% OVA for 25 min/day. On day 18, 24 h after the last aerosol challenge, bilateral bronchoalveolar lavage (BAL) (2 aliquots of 1 ml PBS plus 0.6 mM EDTA) was performed. BAL fluids were centrifuged (2000 g, 10 min) and cells were resuspended in HBSS, enumerated by hemocytometer, and concentrated onto microscope slides by cytocentrifuge (STATspin) (265 g). […]

COC(=O)CCC[C@H](O)[C@H](O)/C=C/C=C/C=C\C=C\[C@H](O)COc1ccc(F)cc1 [LXa, 15-epi,16-para-fluoro-phenoxy-LXA4-methyl ester]
lymphocyte reduction compared with Montelukast: statistically more effective than Montelukast in terms of lymphocyte reduction
